The source of these data is PubChem BioAssay AID248 (DTP/NCI, 2004).

For this assay, the system named is L1210 leukemia ip in BDF1 mice, survival T/C. In words: NCI In Vivo Anticancer Drug Screen. Data for tumor model L1210 Leukemia (intraperitoneal) in B6D2F1 (BDF1) mice. The settings on record: endpoint: mean survival time, higher = longer survival. An outline of the steps: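 Value reflects the ratio of survival in compound-treated mice to survival in vehicle-treated controls, with both groups carrying the same transplanted tumor.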

Where [1] appears, read: dose: 200.0 mg/kg/injection, schedule: Q01DX001 (ip), vehicle: saline.
[2] abbreviates: dose: 100.0 mg/kg/injection, schedule: Q01DX001 (ip), vehicle: saline.
Setting [3] is: dose: 100.0 mg/kg/injection, schedule: Q04DX003 (ip), vehicle: saline.
Where [4] appears, read: dose: 200.0 mg/kg/injection, schedule: Q04DX003 (ip), vehicle: saline.
Where [5] appears, read: dose: 400.0 mg/kg/injection, schedule: Q04DX003 (ip), vehicle: saline.
Setting [6] is: dose: 50.0 mg/kg/injection, schedule: Q01DX009 (ip), vehicle: saline with Tween-80.
The mark [7] stands for this setting: dose: 100.0 mg/kg/injection, schedule: Q01DX009 (ip), vehicle: saline with Tween-80.
Where [8] appears, read: dose: 100.0 mg/kg/injection, schedule: Q04DX002 (ip), vehicle: Klucel (hydroxypropylcellulose) (HPC).
The mark [9] stands for this setting: dose: 200.0 mg/kg/injection, schedule: Q04DX002 (ip), vehicle: Klucel (hydroxypropylcellulose) (HPC).
Setting [10] is: dose: 400.0 mg/kg/injection, schedule: Q04DX002 (ip), vehicle: Klucel (hydroxypropylcellulose) (HPC).
[11] abbreviates: dose: 100.0 mg/kg/injection, schedule: Q04DX003 (ip), vehicle: Klucel (hydroxypropylcellulose) (HPC).
The mark [12] stands for this setting: dose: 200.0 mg/kg/injection, schedule: Q04DX003 (ip), vehicle: Klucel (hydroxypropylcellulose) (HPC).
The mark [13] stands for this setting: dose: 400.0 mg/kg/injection, schedule: Q04DX003 (ip), vehicle: Klucel (hydroxypropylcellulose) (HPC).
Where [14] appears, read: dose: 50.0 mg/kg/injection, schedule: Q04DX003 (ip), vehicle: saline.
Where [15] appears, read: dose: 100.0 mg/kg/injection, schedule: Q01DX001 (ip), vehicle: carboxymethylcellulose (CMC).
Setting [16] is: dose: 200.0 mg/kg/injection, schedule: Q01DX001 (ip), vehicle: carboxymethylcellulose (CMC).
The mark [17] stands for this setting: dose: 400.0 mg/kg/injection, schedule: Q01DX001 (ip), vehicle: carboxymethylcellulose (CMC).
Where [18] appears, read: dose: 100.0 mg/kg/injection, schedule: Q01DX009 (ip), vehicle: Klucel (hydroxypropylcellulose) (HPC).
Where [19] appears, read: dose: 200.0 mg/kg/injection, schedule: Q01DX009 (ip), vehicle: Klucel (hydroxypropylcellulose) (HPC).
[20] abbreviates: dose: 400.0 mg/kg/injection, schedule: Q01DX009 (ip), vehicle: Klucel (hydroxypropylcellulose) (HPC).
[21] abbreviates: dose: 200.0 mg/kg/injection, schedule: Q01DX009 (ip), vehicle: saline with Tween-80.

“And” between values parts separate entries of the source, which are not always exact repeats. Identical values can stand only once. Toxic doses and inconclusive results are not listed.

As to `CC(C)CC(NC(=O)OCc1ccccc1)C(=O)NCCCCCCNCCCCCCNC(=O)C(CC(C)C)NC(=O)OCc1ccccc1` (stereo not drawn), the T/C by setting is: (dose: 50.0 mg/kg/injection, schedule: Q01DX001 (ip), vehicle: saline) 95 % of control; under setting [1], 98 % of control.
Turning to `CCOC(=O)C1CN(C)CCC1=O` (stereo not drawn), the T/C runs as follows: under setting [2], 108 % of control; (dose: 100.0 mg/kg/injection, schedule: Q01DX009 (ip), vehicle: saline) 123 % of control; under setting [3], 100 % of control; under setting [1], 101 % of control; (dose: 200.0 mg/kg/injection, schedule: Q01DX009 (ip), vehicle: saline) 98 % of control; under setting [4], 104 % of control. For the same compound, the T/C reads like this: (dose: 400.0 mg/kg/injection, schedule: Q01DX001 (ip), vehicle: saline) 97 % of control; (dose: 400.0 mg/kg/injection, schedule: Q01DX009 (ip), vehicle: saline) 96 % of control; under setting [5], 98 % of control.
As to `COc1ccc(OC)c(/C=C(C(=O)O)/C(=C/c2cc(OC)ccc2OC)C(=O)O)c1`, the T/C is, setting by setting: (dose: 100.0 mg/kg/injection, schedule: Q04DX003 (ip), vehicle: saline with Tween-80) 105 % of control; (dose: 200.0 mg/kg/injection, schedule: Q04DX003 (ip), vehicle: saline with Tween-80) 102 % of control; (dose: 400.0 mg/kg/injection, schedule: Q04DX003 (ip), vehicle: saline with Tween-80) 97 % of control.
For the compound `O=C(O)C(Br)C(Br)C(=O)Nc1cccc2ccccc12` (stereo not drawn), the T/C is, setting by setting: (dose: 25.0 mg/kg/injection, schedule: Q01DX009 (ip), vehicle: saline with Tween-80) 97 % of control; under setting [6], 96 % of control; under setting [7], 96 % of control and 98 % of control.
Take `CC1=CC(C)(C)NC(=S)N1c1ccc(N(C)C)cc1`: the T/C reads like this: (dose: 112.0 mg/kg/injection, schedule: Q01DX Z (ip), vehicle: methylcellulose (MC)) 101 % of control; (dose: 166.0 mg/kg/injection, schedule: Q01DX Z (ip), vehicle: methylcellulose (MC)) 96 % of control; (dose: 250.0 mg/kg/injection, schedule: Q01DX Z (ip), vehicle: methylcellulose (MC)) 94 % of control; (dose: 375.0 mg/kg/injection, schedule: Q01DX Z (ip), vehicle: methylcellulose (MC)) 96 % of control.
`CC#CCCC(=O)OCC`: the T/C was 104 % of control under setting [8], 106 % of control under setting [9] and 95 % of control under setting [10].
Consider `CCP(CC)SC1OC(COC(C)=O)C(OC(C)=O)C(OC(C)=O)C1OC(C)=O` (stereo not drawn), for which the T/C by setting is: (dose: 50.0 mg/kg/injection, schedule: Q01DX001 (ip), vehicle: Klucel (hydroxypropylcellulose) (HPC)) 102 % of control; (dose: 100.0 mg/kg/injection, schedule: Q01DX001 (ip), vehicle: Klucel (hydroxypropylcellulose) (HPC)) 101 % of control; (dose: 200.0 mg/kg/injection, schedule: Q01DX001 (ip), vehicle: Klucel (hydroxypropylcellulose) (HPC)) 98 % of control.
`Nc1c(I)cc([N+](=O)[O-])cc1I`: the T/C under setting [11] was 95 % of control, the T/C under setting [12] was 93 % of control and the T/C under setting [13] was 98 % of control.
In the case of `Cc1ccc(C(=O)OCC2OC(Cl)CC2OC(=O)c2ccc(C)cc2)cc1` (stereo not drawn), the T/C was 107 % of control under setting [14], 102 % of control under setting [3], 91 % of control under setting [4] and 98 % of control under setting [5].
For the compound `CC(O)CN(c1ccccc1)c1ccccc1` (stereo not drawn), the T/C under setting [15] is 101 % of control, the T/C under setting [16] was 92 % of control and the T/C under setting [17] was 95 % of control.
For `CC(=O)Nc1ccc(/C=C2N=C(/C=C/c3ccccc3)OC\2=O)cc1`, the T/C was 94 % of control under setting [8], 105 % of control under setting [9] and 90 % of control under setting [10].
Consider `CCN(CC)c1ccc(N=Nc2cc(Cl)ccc2Cl)c(NC(=O)CSC(C)=O)c1`, for which the T/C was 110 % of control under setting [18], 101 % of control under setting [19] and 97 % of control under setting [20].
Regarding `Cc1c(O)ccc2ccc(=O)oc12`, the T/C under setting [15] is 98 % of control, the T/C under setting [16] was 90 % of control and the T/C under setting [17] is 93 % of control.
As to `Cc1ccc(NCC(=O)NN)cc1`, the T/C is 104 % of control under setting [8] and 107 % of control under setting [9].
As to `CC(C)c1ccc(C(=O)O)cc1S(=O)(=O)F`, the T/C is, setting by setting: under setting [7], 95 % of control; under setting [21], 98 % of control.
As to `O=N[O-].O=N[O-].[Co].[NH2-].[NH2-].[NH2-].[NH2-]`, for the setting “dose: 100.0 mg/kg/injection, schedule: Q04DX002 (ip), vehicle: saline with Tween-80”, the T/C is 112 % of control.
On to `COc1cc2c(c(OC)c1OC)-c1ccc(SC)c(=O)cc1[C@@H](NC1OC(CO)C(O)C(O)C1O)CC2` (stereo partly drawn), for which the T/C runs as follows: (dose: 25.0 mg/kg/injection, schedule: Q01DX005 (ip), vehicle: saline) 102 % of control; (dose: 50.0 mg/kg/injection, schedule: Q01DX009 (ip), vehicle: saline) 150 % of control; (dose: 75.0 mg/kg/injection, schedule: Q01DX009 (ip), vehicle: saline) 95 % of control; (dose: 150.0 mg/kg/injection, schedule: Q01DX005 (ip), vehicle: saline) 120 % of control.
`CC(=O)c1cccc(NC(=O)Nc2cccc(C)n2)c1`: the T/C under setting [18] was 106 % of control, the T/C under setting [19] is 102 % of control and the T/C under setting [20] was 101 % of control.
With `O=C1CCC2(CCCc3c2ccc2ccccc32)O1` (stereo not drawn), the T/C runs as follows: under setting [14], 97 % of control; under setting [3], 97 % of control; under setting [4], 90 % of control.
Consider `Cc1ccc(C)c(CCC(C)CCCC(C)C)c1` (stereo not drawn), for which the T/C is, setting by setting: under setting [2], 97 % of control; under setting [1], 104 % of control.
For the compound `O=S(=O)(O)c1cc(I)c(O)c2ncccc12`, the T/C is, setting by setting: under setting [8], 102 % of control; under setting [9], 95 % of control; under setting [10], 95 % of control.
Regarding `Nc1nc(N)c(N=Nc2ccc(S(=O)(=O)Nc3nccs3)cc2)cc1N=Nc1ccccc1`, the T/C under setting [15] was 94 % of control, the T/C under setting [16] is 92 % of control and the T/C under setting [17] is 105 % of control.
For `COC1OC(COC(=S)SCC2OC(OC)C(OC)C(OC)C2OC)C(OC)C(OC)C1OC` (stereo not drawn), the T/C under setting [8] was 100 % of control; the T/C under setting [9] was 93 % of control and 92 % of control; the T/C under setting [10] was 96 % of control and 89 % of control.
Regarding `O=C(c1ccccc1)C1C(C(=O)c2ccccc2)N1Cc1ccccc1` (stereo not drawn), the T/C under setting [18] was 100 % of control; the T/C under setting [11] is 96 % of control and 93 % of control; the T/C under setting [19] was 101 % of control; the T/C under setting [12] is 96 % of control and 91 % of control; the T/C under setting [20] is 97 % of control; the T/C under setting [13] was 93 % of control and 100 % of control.
On to `c1ccc(CC23CCCCC2N3)cc1` (stereo not drawn), for which, under setting [6], the T/C is 95 % of control.
As to `CCC1CN2CCc3cc(OC)c(OC)cc3C2CC1O` (stereo not drawn), the T/C is, setting by setting: under setting [7], 97 % of control; under setting [21], 110 % of control.
With `CC(=O)OCC(OC(C)=O)C(OC(C)=O)C(OC(C)=O)C(/C=N/NC(N)=S)=N/NC(N)=S` (stereo not drawn), the T/C (dose: 100.0 mg/kg/injection, schedule: Q01DX009 (ip), vehicle: other) was 95 % of control; the T/C (dose: 100.0 mg/kg/injection, schedule: Q04DX003 (ip), vehicle: other) was 98 % of control; the T/C (dose: 200.0 mg/kg/injection, schedule: Q01DX009 (ip), vehicle: other) was 91 % of control; the T/C (dose: 200.0 mg/kg/injection, schedule: Q04DX003 (ip), vehicle: other) is 103 % of control; the T/C (dose: 400.0 mg/kg/injection, schedule: Q04DX003 (ip), vehicle: other) is 103 % of control.
For the compound `CC(C)OC(CCCl)c1ccccc1` (stereo not drawn), the T/C under setting [18] is 91 % of control; the T/C under setting [11] was 96 % of control; the T/C under setting [19] is 96 % of control; the T/C under setting [12] was 102 % of control; the T/C under setting [20] is 95 % of control; the T/C under setting [13] was 96 % of control.
Regarding `CCOC(=O)C(Cc1c[nH]c2ccccc12)(NC=O)C(=O)OCC`, the T/C runs as follows: under setting [18], 91 % of control; under setting [19], 100 % of control; under setting [20], 91 % of control.
Regarding `Cc1ccccc1NC(=O)Nc1ccccc1C`, the T/C is, setting by setting: under setting [18], 97 % of control; under setting [19], 106 % of control; under setting [20], 93 % of control.
